Paper PMC9953717, “Novel Green Fluorescent Polyamines to Analyze ATP13A2 and ATP13A3 Activity in the Mammalian Polyamine Transport System” (Biomolecules, 2023)

Target: T1, human ATP13A3 WT (A3 WT-OE) (Homo sapiens, UniProt Q9H7F0)
T1 construct: compared with catalytically dead D498N
T1 sequence (Q9H7F0 1-1226): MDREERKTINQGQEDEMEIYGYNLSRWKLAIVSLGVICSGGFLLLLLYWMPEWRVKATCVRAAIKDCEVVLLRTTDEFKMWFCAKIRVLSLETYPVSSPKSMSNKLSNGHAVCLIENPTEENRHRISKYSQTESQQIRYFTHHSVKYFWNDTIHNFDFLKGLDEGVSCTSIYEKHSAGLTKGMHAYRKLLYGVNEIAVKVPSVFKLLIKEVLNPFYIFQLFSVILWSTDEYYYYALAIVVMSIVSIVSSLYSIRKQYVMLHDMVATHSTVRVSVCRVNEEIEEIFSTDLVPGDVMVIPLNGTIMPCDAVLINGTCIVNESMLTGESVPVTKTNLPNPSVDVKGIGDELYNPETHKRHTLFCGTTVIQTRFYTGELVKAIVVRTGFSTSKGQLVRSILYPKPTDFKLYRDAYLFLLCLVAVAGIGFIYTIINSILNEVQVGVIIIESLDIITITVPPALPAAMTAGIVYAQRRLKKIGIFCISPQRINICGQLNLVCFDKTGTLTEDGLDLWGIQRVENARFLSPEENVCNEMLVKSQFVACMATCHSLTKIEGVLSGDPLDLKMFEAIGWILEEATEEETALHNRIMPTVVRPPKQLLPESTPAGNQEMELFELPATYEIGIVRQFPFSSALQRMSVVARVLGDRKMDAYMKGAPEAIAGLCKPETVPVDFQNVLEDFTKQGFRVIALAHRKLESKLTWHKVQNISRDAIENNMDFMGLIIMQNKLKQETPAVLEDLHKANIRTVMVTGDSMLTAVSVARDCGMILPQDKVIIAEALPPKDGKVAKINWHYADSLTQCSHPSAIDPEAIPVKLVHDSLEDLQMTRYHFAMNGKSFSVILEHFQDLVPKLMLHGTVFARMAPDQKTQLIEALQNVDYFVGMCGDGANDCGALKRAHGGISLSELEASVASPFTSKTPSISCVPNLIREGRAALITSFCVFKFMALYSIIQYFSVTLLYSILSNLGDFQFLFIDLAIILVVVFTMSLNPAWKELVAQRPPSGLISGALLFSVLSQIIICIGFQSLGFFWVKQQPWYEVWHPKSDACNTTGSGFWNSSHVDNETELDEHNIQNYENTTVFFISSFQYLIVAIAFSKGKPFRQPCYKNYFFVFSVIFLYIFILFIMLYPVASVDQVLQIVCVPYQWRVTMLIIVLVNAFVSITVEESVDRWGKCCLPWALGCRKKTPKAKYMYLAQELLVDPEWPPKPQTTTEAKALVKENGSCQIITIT
Assay: radiolabeled uptake in HMEC-1 cells, WT versus D498N overexpression
Assay type: cell-based
Conditions: 30 min, 37 °C, labelled compound

Row | fold uptake at 5 μM [fold] | Compound
1 | 26 | NCCCCN [14C-PUT]
2 | 41 | NCCCCNCCCN [14C-SPD]
